Test results: paper PMC12477080, “Polychlorinated biphenyls (PCBs) interact with drug metabolism in vivo” (Archives of Toxicology, 2025)

How the values were obtained:
CYP2C9 [1] = test system: CYP2C9; parameters: method as in Makia et al. [2014]; settings: cFos and JunD binding to CYP2C9 promoter; ref Makia et al. [2014]; cited from earlier work
CYP2C9 mRNA = settings: primary human hepatocytes, three donors, 48 h exposure; PCB74 0.1 and 0.5 µM
CYP2D6 = test: CYP phenotyping cocktail clinical study: metoprolol/α-OH-metoprolol metabolic ratio and its association with PCB plasma levels; settings: linear regression of MR AUC0–8 h α-OH-metoprolol/metoprolol (CYP2D6 activity) on PCB plasma concentration
Method: (§1) The participants were ascertained not to have any acute disease by medical history, physical examination, laboratory screening, including hematological and biochemical blood tests, and a 12-lead electrocardiogram. […] The demographic data of the subjects are summarized in Table 1 in the supplemental data. At the enrollment visit, 2 blood samples (9 ml each) were collected into ethylenediaminetetraacetic acid (EDTA)-containing tubes taken from each subject for analyzing the plasma concentrations of PCB congeners and for pharmacogenetic analysis.
(§2) Participants stayed fasted from the evening before until 3 h after drug administration. After that, a meal was provided. Water and juice were permitted but alcoholic and caffeinated beverages were not allowed from the evening before drug administration until the last blood sample was taken on the next day. Venous blood samples (9 ml each) were collected through an intravenous catheter immediately before and 0.25, 0.5, 0.75, 1, 1.5, 2, 2.5, 3, 4, 5, 6, 7, 8, and 24 h after drug administration. Blood was drawn into EDTA-coated tubes, centrifuged at 1500 g for 10 min at 4 °C, and plasma samples were subsequently stored at − 80 °C until further analysis. After completely voiding the bladder immediately before drug administration, the participants collected urine from 0 to 24 h after drug administration. After weighing the collected urine, a 10 ml aliquot of each fraction was taken.
(§3) Commercially sourced standards and internal standards were used for quantification (see Supplemental Materials). In brief, 20 µl of the plasma samples were protein-precipitated with 80 µl methanol containing all internal standards or were treated for 16 h at 37 °C with 2 µl β-glucuronidase (1,000,000 Units) for deconjugation before protein precipitation with 78 µl methanol containing internal standards. Samples were centrifuged for 20 min, at 4 °C and 17,000 × g, and 40 µl of the supernatants were diluted with 40 µl LC–MS grade water, centrifuged again for 5 min at 4 °C and 17,000 × g and 50 µl supernatant were transferred to LC–MS vials 5 µl of the samples were injected into the LC–MS system.
(§4) An Agilent 1290 Infinity II UHPLC coupled with a SCIEX QTRAP6500 + triple quadrupole mass spectrometer was used. Chromatographic separation was achieved on an Agilent Poroshell 120 EC-C18 (1.9 µm, 2.1 × 50 mm) column with A: 0.1% formic acid in water and B: methanol with a flow rate of 0.7 ml/min and a total run time of 8.5 min. Analytes were eluted using a gradient program. The following gradient steps represent gradual changes in % B over time: 5% B from 0 to 0.2 min, 30% B at 2 min, 34% B at 4.8 min, 95% B at 6.5 min, 95% B at 7.5 min and re-equilibrating to 5% B at 7.7 min and 5%B till 8.5 min. A representative chromatogram is shown in supplemental Fig. 2. The scheduled MRM mode was applied for analyte detection in both positive and negative ESI modes (Supplementary Table 4). Calibration curves were constructed with linear regression using weighted (1/x^2) models (detailed information in supplemental methods).
(§5) Partial areas under the plasma concentration–time curves from 0 to 3 h (AUC0–3 h), from 0 to 4 h (AUC0–4 h), and from 0 to 8 h (AUC0–8 h) were calculated based on measured concentrations by the linear trapezoidal rule without extrapolation. […] Metabolic ratios (MR) were calculated by dividing the partial AUC of the metabolite by the respective partial AUC of the parent drug. The MRs were used as biomarkers for the individual CYP activities of the study subjects.

[2] = Determination of PCB concentrations in plasma of HELPcB and control participants; format: in vivo; settings: human plasma
Method: The laboratory regularly participates in round robins for the determination of PCBs in plasma (www.g-equas.de).
Plasma concentrations of PCB congeners were quantified in blood samples from all participants using gas chromatography/mass spectrometry (GC–MS) (Fig. 2A and Supplementary Table 2). A total of 19 PCB congeners were measured in control (n = 10) and HELPcB (n = 10) participants, with PCBs detected in all individuals. […] In the control group, PCB plasma concentrations primarily reflected background environmental exposure, such as dietary intake, representing the general population’s burden.

CYP2C9 [3] = test: CYP phenotyping cocktail clinical study: torsemide/OH-torsemide metabolic ratio and its association with PCB plasma levels
Method: as §1, §2, §3, §4, §5

CYP2B6 = test: CYP phenotyping cocktail clinical study: efavirenz/8-OH-efavirenz metabolic ratio and its association with PCB plasma levels; settings: linear regression of MR AUC0–8 h 8-OH-efavirenz/efavirenz (CYP2B6 activity) on PCB plasma concentration
Method: as §1, §2, §3, §4, §5

recombinant CYP2C9 = recombinant CYP2C9 (Homo sapiens, UniProt P11712); settings: PCB74 1–10 µM; Luciferin–ME substrate
Chain of recombinant CYP2C9 (P11712 whole entry): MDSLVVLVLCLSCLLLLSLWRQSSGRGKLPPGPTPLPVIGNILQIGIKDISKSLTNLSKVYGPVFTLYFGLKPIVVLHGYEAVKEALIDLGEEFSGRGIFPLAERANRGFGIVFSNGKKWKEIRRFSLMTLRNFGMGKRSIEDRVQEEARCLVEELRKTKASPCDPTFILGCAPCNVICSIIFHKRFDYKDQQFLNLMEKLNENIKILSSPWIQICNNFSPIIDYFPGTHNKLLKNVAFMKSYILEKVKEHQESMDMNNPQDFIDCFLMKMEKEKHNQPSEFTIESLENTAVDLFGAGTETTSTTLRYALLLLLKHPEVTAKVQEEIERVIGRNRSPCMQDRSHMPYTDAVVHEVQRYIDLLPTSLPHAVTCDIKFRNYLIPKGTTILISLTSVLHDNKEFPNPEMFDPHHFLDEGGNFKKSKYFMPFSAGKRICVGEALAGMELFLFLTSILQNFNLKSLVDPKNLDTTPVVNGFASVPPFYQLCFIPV
Method: (§6) CYP1A2 and CYP2C9 enzyme activity was first assessed using a luciferase-based P450-Glo™ screening system (Promega, Madison, WI, USA) following the manufacturer’s instructions. The reaction mixture consisted of 1 nM recombinant enzyme (CYP1A2 or CYP2C9), 250 µM luciferin–ME substrate, 0.1 M potassium phosphate buffer (pH 7.4), and an NADPH regeneration system (including NADP⁺, glucose-6-phosphate, MgCl₂, and glucose-6-phosphate dehydrogenase), in a total volume of 50 µL. Controls for enzyme inhibition included α-naphthoflavone (1 µM) for CYP1A2 and sulfaphenazole (2 µM) for CYP2C9. After preincubation at 37 °C for 10 min (excluding NADPH), the reaction was initiated by adding the NADPH regeneration system and incubated for 30 min. To terminate the reaction and generate luminescence, 50 µL of Luciferin Detection Reagent was added, followed by a 20-min incubation at room temperature. Luminescence was measured using a luminometer, with light intensity proportional to CYP activity. […] Enzyme activity was quantified relative to a d-luciferin standard curve and expressed as pmol luciferin/min/pmol CYP. […] Cells were maintained at 37 °C with 5% CO₂ throughout the experiment. […] Supernatants were transferred to LC–MS vials and analyzed for relevant metabolites. Details on metabolite quantification are provided in the supplemental file. […]

[4] = target: HEK293 cells overexpressing CYP2C9 (Homo sapiens, UniProt P11712); settings: 0.1, 0.5, 1 µM PCB74, 24 h, then 10 µM torsemide 24 h
Chain of HEK293 cells overexpressing CYP2C9 (P11712 whole entry): as above
Method: as §6

CYP1A2 = test system: CYP1A2; parameters: method as in Solan and Lavado [2023]; settings: ref Solan and Lavado [2023]; cited from earlier work
[5] = linear regression of MR AUC0–8 h OH-torsemide/torsemide (CYP2C9 activity) on PCB plasma concentration

CC(C)(C)c1cc(O)ccc1O [tBHQ, tert-butylhydroquinone]
effect on CYP2C9 expression (CYP2C9 [1]): induces CYP2C9 expression via AP-1 activation

Clc1ccc(-c2cc(Cl)c(Cl)cc2Cl)cc1 [PCB74]
effect on CYP2C9 mRNA expression (CYP2C9 mRNA): did not significantly increase CYP2C9 mRNA expression
t value (CYP2D6): 1,723
β (standardized regression coefficient) (CYP2D6): 0,376
PCB plasma concentration, Mean [±SD] HELPcB ([2]; HELPcB (occupationally exposed) group): 0.129 ± 0.121 ng/mL
PCB plasma concentration, Geometric mean, HELPcB ([2]; HELPcB group, N 10): 0.086 ng/mL
PCB plasma concentration, Mean [±SD] all ([2]; all participants): 0.071 ± 0.102 ng/mL
PCB plasma concentration, Mean [±SD] control ([2]; control group (background exposure)): 0.014 ± 0.011 ng/mL
PCB plasma concentration, Geometric mean, Control ([2]; control group, N 10): 0.010 ng/mL
association with CYP2C9 activity in hierarchical generalized mixed model (CYP2C9 [3]; adjusted for co-factors (smoking status, gender, BMI, age)): became significant when BMI, gender, or all factors were included as co-factors
t value (CYP2C9 [3]; [5]): 1,826
β (standardized regression coefficient) (CYP2C9 [3]; [5]): 0,395
t value (CYP2C9 [3]; linear regression of MR AUC0–8 h OH-torsemide/torsemide (CYP2C9 activity) on PCB plasma concentration, PM excl): 1,723
t value (CYP2B6): 0,808
β (standardized regression coefficient) (CYP2B6): 0,204
t value (CYP2B6; PM excl): 0,622
β (standardized regression coefficient) (CYP2B6; PM excl): 0,170
effect on CYP2C9 enzyme activity (luminescence) (recombinant CYP2C9): remained unaffected
effect on CYP2C9 activity in HEK293 cells (torsemide probe) [4]: did not significantly modulate CYP2C9 activity

O=S(=O)(O)C(F)(F)C(F)(F)C(F)(F)C(F)(F)C(F)(F)C(F)(F)C(F)(F)C(F)(F)F [PFOS]
effect on CYP1A2 activity (CYP1A2): inhibits CYP1A2 activity
